# Assay results as given in patent US20190099413A1, “DRUG FOR CANCER THERAPY CHARACTERIZED IN THAT AXL INHIBITOR AND IMMUNE CHECKPOINT INHIBITOR ARE ADMINISTERED IN COMBINATION” (ONO PHARMACEUTICAL CO., LTD., priority 2016, published 2019).
# System: mouse colon cancer cell line MC38
# Assay: Anti-tumor action on mouse colon cancer cell line MC38 subcutaneous cancer-bearing model
# Format: in vivo
# Settings: for average volume of tumors on day 14: C57/BL6 mice; for Number of cases where tumor was eliminated: observed until 28th day, cases/n; for mice in which cancer had been eliminated: single administration or combined use with 4H2
# Protocol: Biological Example 1: Evaluation of Anti-Tumor Action by Combined Use of Compound A and Anti-PD-1 Antibody on Mouse Colon Cancer Cell Line MC38 Subcutaneous Cancer-Bearing Model (In Vivo)
# For the compound A, mouse feed CRF-1 containing 0.0013% or 0.013% compound A was manufactured by Oriental Yeast Co., Ltd. so as to be administered at a dose of 2 or 20 mg/kg/day via diet. 4H2 as the anti-mouse PD-1 antibody, which had been prepared in KITAYAMA LABES CO., LTD., was obtained. C57/BL6 mouse colon cancer cell line MC38 was subcutaneously transplanted into dorsal parts of […] syngeneic mice (C57/BL6, female, 6 weeks old (Charles River Laboratories Japan, Inc.)) to produce MC38 subcutaneous cancer-bearing mice. On the day when the average of tumor volumes reached 150 mm^3, group assignment was carried out based on the tumor volumes (the day on which administration was started was defined as Day 0). To the MC38 subcutaneous cancer-bearing mice, PBS (on days 0, 6, 12, 18, and 24, intraperitoneal administration, n=9), 4H2 (on Day 0, 20 mg/kg/day and on days 6, 12, 18, and 24, 10 mg/kg/day, intraperitoneal administration, n=8), the compound A (on days 0 to 28, 2 mg/kg, administration via diet (n=9)), the compound A (on days 0 to 28, 20 mg/kg, administration via diet (n=9)), combined use of 4H2 and the compound A (compound A, 2 mg/kg (n=9)), and combined use of 4H2 and the compound A (compound A, 20 mg/kg (n=9)) were administered. Change of the volume of tumor was observed continuously until the 28th day. Note here that, from the viewpoint of the animal ethics, a mouse whose tumor exceeded 3000 mm^3 in volume was euthanatized, and evaluation for the group to which the euthanatized mouse belonged was stopped at this point.
smiles,measurement,setting,value
"COc1cc2nccc(Oc3ccc(NC(=O)c4cc5c(n(-c6ccccc6)c4=O)CCCC5=O)nc3)c2cc1OC [Compound A, N-{5-[(6,7-dimethoxy-4-quinolinyl)oxy]-2-pyridinyl}-2,5-dioxo-1-phenyl-1,2,5,6,7,8-hexahydro-3-quinolinecarboxamide]",average volume of tumors on day 14,"compound A 2 mg/kg via diet days 0 to 28, alone or combined with 4H2 (20 then 10 mg/kg/day i.p.)",1379.5 mm^3
same,Number of cases where tumor was eliminated,"compound A 2 mg/kg via diet days 0 to 28, alone or combined with 4H2",1/9
same,mice in which cancer had been eliminated,compound A 2 mg/kg,one
same,average volume of tumors on day 14,"compound A 20 mg/kg via diet days 0 to 28, alone or combined with 4H2 (20 then 10 mg/kg/day i.p.)",639.3 mm^3
same,Number of cases where tumor was eliminated,"compound A 20 mg/kg via diet days 0 to 28, alone or combined with 4H2",1/9
same,mice in which cancer had been eliminated,compound A 20 mg/kg,one
